# Laboratory results reported in patent US9387248B2, “Pharmaceutical composition comprising antibody composition which specifically binds to CCR4” (KYOWA HAKKO KIRIN CO., LTD, priority 2009, dated 2016).
# B1: KM8760: human CDR-grafted anti-CCR4 antibody lacking fucose modification, VH SEQ ID NO:11, VL SEQ ID NO:12 (antibody, V domains shown)
# VH: EVQLVESGGDLVQPGRSLRLSCAASGFIFSNYGMSWVRQAPGKGLEWVATISSASTYSYYPDSVKGRFTISRDNAKNSLYLQMNSLRVEDTALYYCGRHSDGNFAFGYWGQGTLVTVSS
# VL: DVLMTQSPLSLPVTPGEPASISCRSSRNIVHINGDTYLEWYLQKPGQSPQLLIYKVSNRFSGVPDRFSGSGSGTDFTLKISRVEAEDVGVYYCFQGSLLPWTFGQGTKVEIK
# modifications: afucosylated
# Tests used:
# [1] = tested on: HH cells grafted into SCID mice; assay: Antitumor effect of anti-CCR4 antibody and Lenalidomide in combination (2), HH cells grafted into SCID mice; format: in vivo, SCID mouse; conditions: KM8760 20 mg/kg iv Day 0, 7, 14, 21, Lenalidomide 1 mg/kg ip daily Day 0-13
# Protocol: (§1) HH cells (human multiple myeloma cell line; ATCC No: CRL-2105) were suspended in Dulbecco's phosphate buffered saline without calcium chloride and magnesium chloride (PBS, manufactured by Invitrogen) at a density of 2×10^8 cells/mL, and 100 μL of the suspension was transplanted into the ventral skin of SCID mouse (obtained by Nippon Crea, male). Seven days after the cell transplantation, a diameter of a tumor was measured with calipers, and a tumor volume was calculated using the following formula. Tumor volume=short diameter×short diameter×long diameter×0.5 (Formula)
# Individuals having the tumor volume within the range of 51 to 79 mm^3 were selected, and grouped such that the average of tumor volume was to be equal. Then, the following administration groups A to D were arranged. The day of grouping was defined as Day 0.
# (§2) A. Negative control group: Administration of medium
# B. Group administering KM8760 alone: 20 mg/kg was administered on Day 0, Day 7, Day 14 and Day 21.
# (§3) C. Group administering Lenalidomide alone: 1 mg/kg was administered everyday on Day 0 to Day 13.
# (§4) D. Group administering KM8760 and Lenalidomide in combination: the respective agent was administered on the same schedule and at the same dose as each group administering respective agent alone.
# (§5) The experiment was conducted with groups each consisting of twelve mice. KM8760 was diluted with saline (manufactured by Otsuka Pharmaceutical), and the obtained solution was administered from the tail vein. Lenalidomide was suspended with saline containing 0.5% of methylcellulose and the diluent was intraperitoneally administered. The tumor volume was measured chronologically. The antitumor effect was evaluated by comparing the average values of values (V/V0) obtained by dividing the tumor volume on each day of measurement by the tumor volume on Day 0 in each group.
# The result of a test for a significant difference (Steel-Dwass test) between each group administering the respective agent alone and combination administration group is shown in Table 3. In the table, na means not applicable. In addition, when p<0.05, the value is considered to show a significant difference and is shown with * in the table.
# (§6) In the table, * means the case where the actual value of T/C is smaller than the theoretical value.
# HH cells = assay: ADCC activity of KM8760 with Lenalidomide-treated hPBMC effector cells, 51Cr release; format: cell-based, human; conditions: hPBMC effector cells treated with 0.1, 1 or 10 μmol/L Lenalidomide for one, three or five days; effector:target 25:1; KM8760 0.01, 0.1, 1 μg/mL
# Protocol: Mononuclear cells (hPBMC) were obtained from peripheral blood from healthy adults by density-gradient centrifugation using Ficoll-paque (manufactured by GE health care). The obtained hPBMC was suspended in RPMI1640 medium containing 10% of FBS and 1% of penicillin/streptomycin solution (manufactured by Nacalai Tesque) (hereinafter referred to as medium). Lenalidomide was added to the suspension to give a final concentration of […]. The obtained suspension was incubated at 37° C. for one, three or five days. Thereafter incubation, hPBMC was washed one time with the medium, and the washed cells were adjusted to give a concentration of about 5×10^6 cells/mL using the medium. The obtained cells were used as effector cells.
# After 1×10^6 of HH cells suspended in about 100 μL and 20 μL of ^51Cr solution (NEZ030, manufactured by Perkin-Elmer) were mixed, the mixed solution was incubated at 37° C. for 2 to 4 hours so that HH cells were radiolabeled. […]
# On a 96-well U-bottom plate, 50 μL of each of effector cells, target cells and antibody solution was mixed (effector cell:target cell=25:1, final concentration of antibody=0.01, 0.1, or 1 μg/mL) and incubated at 37° C. for 4 hours. […] Herein, CPM was measured using a liquid scintillation counter for microplate (TopCount, manufactured by Perkin-Elmer). […] The rate of cytotoxicity (Lysis %) was calculated using the following formula. […]
# [2] = tested on: HH cells grafted into SCID mice; assay: Antitumor effect of anti-CCR4 antibody and Lenalidomide in combination (1), HH cells grafted into SCID mice; format: in vivo, SCID mouse; conditions: KM8760 20 mg/kg iv Day 0, 7, 14, Lenalidomide 1 mg/kg ip daily Day 0-13
# Protocol: as §1, with “cell;” for “cell line;”, “1×10^7” for “2×10^8”
# Individuals having the tumor volume within the range of 41 to 93 mm^3 were selected, and grouped such that the average of tumor volume was to be equal. Then, the following administration groups A to D were arranged. The day of grouping was defined as Day 0.
# as §2
# B. Group administering KM8760 alone: 20 mg/kg was administered on Day 0, Day 7 and Day 14.
# as §3, §4
# as §5, with “eight” for “twelve”, “obtained solution” for “diluent”
# The results of the test for significant differences (One-way ANOVA, Dunnett test) compared with the negative control group are shown in Table 1. In addition, when p<0.05, the value is considered to show a significant difference and is shown with * in the table.
# as §6
Molecule,T/C (V/V0 of group divided by V/V0 of negative control group) ([1]; Day 0),T/C (V/V0 of group divided by V/V0 of negative control group) ([1]; Day 4),T/C (V/V0 of group divided by V/V0 of negative control group) ([1]; Day 7),T/C (V/V0 of group divided by V/V0 of negative control group) ([1]; Day 10),T/C (V/V0 of group divided by V/V0 of negative control group) ([1]; Day 14),T/C (V/V0 of group divided by V/V0 of negative control group) ([1]; Day 19),T/C (V/V0 of group divided by V/V0 of negative control group) ([1]; Day 21),T/C (V/V0 of group divided by V/V0 of negative control group) ([1]; Day 24),T/C (V/V0 of group divided by V/V0 of negative control group) ([1]; Day 28),"ADCC activity of KM8760 (cytotoxicity rate, Lysis %, FIG. 3) (HH cells)",T/C (V/V0 of group divided by V/V0 of negative control group) ([2]; Day 0),T/C (V/V0 of group divided by V/V0 of negative control group) ([2]; Day 4),T/C (V/V0 of group divided by V/V0 of negative control group) ([2]; Day 7),T/C (V/V0 of group divided by V/V0 of negative control group) ([2]; Day 10),T/C (V/V0 of group divided by V/V0 of negative control group) ([2]; Day 14),T/C (V/V0 of group divided by V/V0 of negative control group) ([2]; Day 17),T/C (V/V0 of group divided by V/V0 of negative control group) ([2]; Day 21)
Nc1cccc2c1CN(C1CCC(=O)NC1=O)C2=O (stereo not drawn) [Lenalidomide],1.00,1.05,0.92,0.93,0.75,0.90,0.88,0.95,0.95,clearly enhanced,1.000,1.041,0.918,0.948,0.875,0.750,0.766
B1,1.00,0.89,0.71,0.62,0.54,0.54,0.54,0.55,0.53,–,1.000,0.910,0.764,0.750,0.691,0.652,0.639
